Data: patent US20160318938A1, “CRYSTALS (2) OF PYRAZINO[2,1-c][1,2,4]TRIAZINE COMPOUND” (PRISM PHARMA CO., LTD., priority 2013, published 2016)
Entries after “also recorded” stand apart in the source; their conditions may differ. One block for each compound: values may come before it.

How the values were obtained:
Format in all cases: physicochemical
[1] = Thermal stability of crystals A and D (oven heating overnight, powder X-ray diffraction); conditions: for crystal form after heating: oven, overnight
Procedure: Crystals A and D were heated in an oven at 50° C. or 70° C. overnight, and transition of each crystal was confirmed by powder X-ray diffraction.

[2] = Stability evaluation of crystal A: slurry in solvents, crystal form by powder X-ray diffraction and DSC; conditions: room temperature, 2 days
Procedure: Crystal A was added in excess to the solvents described in Table 1 to give a slurry, which was stood at room temperature for 2 days, and the crystal form thereof was measured using powder X-ray diffraction and differential scanning calorimeter (DSC).

[3] = Stability evaluation of crystals A, B and C (mixture of equal amounts in supersaturated solution); conditions: for relative stability among crystals A, B and C: room temperature or 40° C.; for form of the crystal obtained: equal amounts of crystals A, B and C, one day
Procedure: To a supersaturated solution of compound 1 using the solvents shown in Table 8 was added a mixture of equal amounts of crystals A, B and C at room temperature or 40° C., and the form of the crystal obtained one day later was observed using powder X-ray diffraction.

[4] = Hygroscopicity evaluation by dynamic water adsorption measuring apparatus; conditions: 25° C.; for hygroscopicity: 5-95% RH; for variation in the mass (weight) with increasing relative humidity: 5-95% RH stepwise
Procedure: The hygroscopicity of Examples 1, 3 and Comparative Example 1 was evaluated by a dynamic water adsorption measuring apparatus. A sample mounting part of the apparatus was maintained at 25° C., and the relative humidity (RH) was set stepwisely within the range of 5-95% RH. The humidity was controlled by changing the relative flow of 0% RH dry nitrogen and 100% RH humidified nitrogen. The sample weight was confirmed at 2 min intervals by a micro balance, and the humidity was sequentially changed at the time point when the weight shift range for 5 min was below 0.01%.

[5] = Relationship between water content of solvent and crystal form (heptane/ethanol 16:3); conditions: for crystal form: overnight
Procedure: To a saturated solution of crystal C in a mixed solvent of heptane and ethanol (volume ratio 16:3) were added crystal C (100 mg) and crystal D (100 mg) at a temperature shown in Table 2, water in the amount shown in Table 6 was further added, and the mixture was stood overnight. The water content of the solution after the standing was measured by the Karl Fischer method, and the crystal form of compound 1 was measured by powder X-ray diffraction. The amount of the water added is shown in mass % relative to the mass of the whole solvent.

[6] = single crystal form in heptane/ethanol (16:3) with water content of less than 0.5%, stood overnight

relative stability to heat ([1]; crystal A versus crystal D, 50° C. overnight): more stable to heat than crystal D
crystal form after heating ([1]; 70° C.): transits to an amorphous form
crystal form ([2]; crystal A slurry in methanol): transition to crystal B occurred
crystal form ([2]; crystal A slurry in tetrahydrofuran): transition to an amorphous form occurred
relative stability among crystals A, B and C ([3]; water): most stable in water
hygroscopicity [4]: low
variation in the mass (weight) with increasing relative humidity ([4]; listed as Example 1): weight did not increase
SMILES: C[C@H]1C2N(C(=O)CN(C)N2C(=O)NCc2ccccc2)[C@@H](Cc2ccc(O)cc2)C(=O)N1Cc1cccc2cccnc12 (stereo partly drawn) [crystal A, (6S,9S)—N-benzyl-6-(4-hydroxybenzyl)-2,9-dimethyl-4,7-dioxo-8-(quinolin-8-ylmethyl)octahydro-1H-pyrazino[2,1-c][1,2,4]triazine-1-carboxamide]
crystal form after heating ([1]; 50° C.): did not show transition; also recorded: not transited; also recorded: crystal A
crystal form ([2]; crystal A slurry in MTBE): transition did not occur; also recorded: crystal A
crystal form ([2]; crystal A slurry in acetonitrile): transition did not occur; also recorded: crystal A
crystal form ([2]; crystal A slurry in ethanol): transition to crystal C occurred gradually
crystal form ([2]; crystal A slurry in ethyl acetate): transition to crystal C occurred gradually
crystal form ([2]; crystal A slurry in isopropanol): transition to crystal C occurred gradually
crystal form ([2]; crystal A slurry in isopropyl acetate): transition did not occur; also recorded: crystal A
crystal form ([2]; crystal A slurry in methylethyl ketone): transition did not occur; also recorded: crystal A
crystal form ([2]; crystal A slurry in water): transition did not occur; also recorded: crystal A

transition of crystal form ([5]; single crystal form in heptane/ethanol (16:3) with water content of not less than 0.5%, left overnight): transited to crystal D
relative stability among crystals A, B and C ([3]; isopropanol, isopropyl acetate, MTBE or ethyl acetate): most stable in other nonaqueous solvents
hygroscopicity [4]: low
variation in the mass (weight) with increasing relative humidity ([4]; listed as Example 3): weight did not increase
SMILES: C[C@H]1C2N(C(=O)CN(C)N2C(=O)NCc2ccccc2)[C@@H](Cc2ccc(O)cc2)C(=O)N1Cc1cccc2cccnc12 (stereo partly drawn) [crystal C, (6S,9S)—N-benzyl-6-(4-hydroxybenzyl)-2,9-dimethyl-4,7-dioxo-8-(quinolin-8-ylmethyl)octahydro-1H-pyrazino[2,1-c][1,2,4]triazine-1-carboxamide]
transition of crystal form [5, 6]: transition of crystal form did not occur; also recorded: not transited

SMILES: C[C@H]1C2N(C(=O)CN(C)N2C(=O)NCc2ccccc2)[C@@H](Cc2ccc(O)cc2)C(=O)N1Cc1cccc2cccnc12 (stereo partly drawn) [Comparative Example 1, (6S,9S)—N-benzyl-6-(4-hydroxybenzyl)-2,9-dimethyl-4,7-dioxo-8-(quinolin-8-ylmethyl)octahydro-1H-pyrazino[2,1-c][1,2,4]triazine-1-carboxamide]
variation in the mass (weight) with increasing relative humidity [4]: weight increased along with an increase in the humidity

crystal form after heating ([1]; 70° C.): transits to an amorphous form
SMILES: C[C@H]1C2N(C(=O)CN(C)N2C(=O)NCc2ccccc2)[C@@H](Cc2ccc(O)cc2)C(=O)N1Cc1cccc2cccnc12 (stereo partly drawn) [crystal D, (6S,9S)—N-benzyl-6-(4-hydroxybenzyl)-2,9-dimethyl-4,7-dioxo-8-(quinolin-8-ylmethyl)octahydro-1H-pyrazino[2,1-c][1,2,4]triazine-1-carboxamide]
transition of crystal form [5, 6]: transition to crystal C occurred; also recorded: transits to crystal C
crystal form after heating ([1]; 50° C.): A part of crystal D transits to an amorphous form; also recorded: mixture of crystal D

crystal form ([5]; crystal C + crystal D (100 mg each) in heptane/ethanol 16:3, 5° C., water added 0 mass %, water content 0.32%): crystal C
crystal form ([5]; crystal C + crystal D (100 mg each) in heptane/ethanol 16:3, 5° C., water added 0.5 mass %, water content 0.93%): crystal D
crystal form ([5]; crystal C + crystal D (100 mg each) in heptane/ethanol 16:3, 5° C., water added 1.0 mass %, water content 1.56%): crystal D
crystal form ([5]; crystal C + crystal D (100 mg each) in heptane/ethanol 16:3, 40° C., water added 0 mass %, water content 0.33%): crystal C
crystal form ([5]; crystal C + crystal D (100 mg each) in heptane/ethanol 16:3, 40° C., water added 0.5 mass %, water content 0.94%): crystal D
crystal form ([5]; crystal C + crystal D (100 mg each) in heptane/ethanol 16:3, 40° C., water added 1.0 mass %, water content 1.55%): crystal D
crystal form ([5]; crystal C + crystal D (100 mg each) in heptane/ethanol 16:3, room temperature, water added 0 mass %, water content 0.33%): crystal C
crystal form ([5]; crystal C + crystal D (100 mg each) in heptane/ethanol 16:3, room temperature, water added 0.5 mass %, water content 0.93%): crystal D
crystal form ([5]; crystal C + crystal D (100 mg each) in heptane/ethanol 16:3, room temperature, water added 1.0 mass %, water content 1.57%): crystal D
crystal form obtained ([5]; crystal C + crystal D in heptane/ethanol 16:3, amount of water further added exceeded 2 mass %): crystal A was obtained
crystal form obtained ([5]; crystal C + crystal D in heptane/ethanol 16:3, water content less than 0.5%): crystal C was obtained
crystal form obtained ([5]; crystal C + crystal D in heptane/ethanol 16:3, water content not less than 0.5%): crystal D was obtained
form of the crystal obtained ([3]; MTBE, 40° C.): crystal C
form of the crystal obtained ([3]; MTBE, room temperature): crystal C
form of the crystal obtained ([3]; ethyl acetate, 40° C.): crystal C
form of the crystal obtained ([3]; ethyl acetate, room temperature): crystal C
form of the crystal obtained ([3]; isopropanol, 40° C.): crystal C
form of the crystal obtained ([3]; isopropanol, room temperature): crystal C
form of the crystal obtained ([3]; isopropyl acetate, 40° C.): crystal C
form of the crystal obtained ([3]; isopropyl acetate, room temperature): crystal C
form of the crystal obtained ([3]; water, 40° C.): crystal A
form of the crystal obtained ([3]; water, room temperature): crystal A
SMILES: C[C@H]1C2N(C(=O)CN(C)N2C(=O)NCc2ccccc2)[C@@H](Cc2ccc(O)cc2)C(=O)N1Cc1cccc2cccnc12 (stereo partly drawn) [compound 1, (6S,9S)—N-benzyl-6-(4-hydroxybenzyl)-2,9-dimethyl-4,7-dioxo-8-(quinolin-8-ylmethyl)octahydro-1H-pyrazino[2,1-c][1,2,4]triazine-1-carboxamide]
